Series [1] relates to HT-1080-FAP cells. Description: internalization experiments in HT-1080-FAP cells. In kind it is cell-based, human. Particulars: 10 min. The protocol: (§1) The human fibrosarcoma cell lines HT-1080 and HT-1080-FAP transferred with human FAP gene were both cultured in Dulbecco modified Eagle medium supplemented with 10% fetal bovine serum (Gibco, USA) at 37℃/5% carbon dioxide. For cell uptake experiments, HT-1080-FAP cells (~ 1 × 10^5/well) or HT-1080 (~ 1 × 10^5/well) were seeded in 24-well plates for 24–48 h and incubated at 37℃ with radiolabeled compounds (74 kBq/well) in 0.5 mL of serum-free medium for indicated times. Non-specific binding was determined by co-incubating with 100 μM FAP inhibitor UAMC1110. For competitive FAP binding assays, HT-1080-FAP cells were incubated with [^177Lu]Lu-FAPI-04 (74 kBq/well) in the presence of different concentrations (10^−3–10^4 nM) of competing non-radioactive ligands. For internalization experiments, the radiotracer-incubated cells were washed twice with PBS (pH 7.4), followed by glycine–HCl (0,05 M, pH = 2.8) solution to distinguish between cell surface–bound (acid-releasable) and internalized (acid-resistant) radioligand. For efflux experiments, cells were preincubated with [^177Lu]21 or [^177Lu]Lu-FAPI-04 for 1 h and subsequently incubated at 37 °C in a medium free of radiotracer and serum for different time periods. […] Cell lysates were collected and the radioactivity was determined using a γ-counter.

Series [2] can be described thus: in vitro stability in PBS or murine serum (radio-HPLC). In kind it is in vitro ADME. The protocol:
(§2) [^18F]21 or [^177Lu]21 (50 μCi, 10 μL) was added to PBS (90 μL) or murine serum (90 μL) and the mixture was incubated at 37 °C for a certain time ([^18F]21: 2 h, [^177Lu]21: 8 d). The PBS mixture was injected directly into the radio-HPLC for analysis. The murine serum was precipitated with 0.1 mL of acetonitrile and centrifuged (10,000 rpm, 5 min). The supernatant was measured and analyzed by the radio-HPLC to determine the stability. For in vivo stability study, the radio tracers were injected into the tail vein of ICR mice and samples of blood were collected after a certain time post injection (pi) ([^18F]21: 4 h, [^177Lu]21: 9 h). The plasma proteins were precipitated using an equal volume of acetonitrile and centrifuged (10,000 rpm, 5 min). The RCP of radio tracer in supernatants were analyzed and quantified by radio-HPLC. The radio-HPLC method was as follows: A: 0.1% TFA in H2O, B: ACN, 0–10 min, 0–100% B. The flow rate was 1 mL/min, and the C18 column (4.6 × 150 mm, 5 μm, ZORBAX, Agilent) was used. When using HPLC to assess the stability of [^177Lu]21, the effluent was collected every 30 s due to its less radioactivity, and samples were measured by an automatic γ-counter (2480 Wizard2, Perkin Elmer). The counted samples were plotted as intensity (cpm) against fraction.

In a further series the test system is HT-1080 cells. Briefly: cell uptake in HT-1080 (FAP negative) cells. In kind it is cell-based, human. The protocol:
as §1

The nature of series [3]: in vivo stability in ICR mice, blood samples (radio-HPLC). As for the experimental part:
as §2

The next series has as its system HT-1080-FAP xenograft. Description: SPECT imaging, HT-1080-FAP xenograft. The class given is in vivo, BALB/C-nu/nu mice. Particulars: about 37 MBq i.v. The protocol:
(§3) All animal experiments were conducted in compliance with a protocol approved by the First Affiliated Hospital of Sun Yat-sen University Institutional Animal Care and Use Committee. BALB/C-nu/nu mice (4–5-week old with body weight of 16–22 g) were purchased from GemPharmatech Co., Ltd. Mice were housed under standard conditions with temperature and light control (12-h-light/12-h-dark cycle) and had free access to water and food. For the tumor model, HT-1080-FAP or HT-1080 cells (5 × 10^6) were subcutaneously injected into the right or left flank of nude mice, respectively. As the tumor diameter reached 3–4 mm, mice were treated with radioligands. Micro-PET and SPECT imaging studies, as well as biodistribution, were conducted when the tumor diameter reached 5–10 mm.
The mice bearing HT-1080-FAP or HT-1080 xenografts were injected with about 37 MBq of [^177Lu]21 via the tail vein, and SPECT (Siemens, Symbia Intevo Bold, Germany) was performed at 2 h to 8 d after injection. The SPECT parameters were as follows: medium-energy collimator, energy peaks of 113 and 208 keV, matrix of 256 × 256, and scan duration of 10 min.

Another series has as its system HT-1080-FAP xenografts. Description: radionuclide treatment of HT-1080-FAP xenografts. In kind it is in vivo, BALB/C-nu/nu mice. The protocol: as §3
Radionuclide therapy was performed when the diameter of HT-1080-FAP xenografts reached 3–4 mm. The mice were randomly divided into 4 groups (n = 4) and intravenously injected with [^177Lu]21 (24.05 MBq), [^177Lu]21 (9.25 MBq), [^177Lu]Lu-FAPI-04 (24.05 MBq) and saline, respectively. Tumor volume (volume = length × width^2/2) and mouse weight were measured every 2–3 d. Endpoint criteria were defined as weight loss of more than 15%, tumor volume greater than 1500 mm^3, or active ulcerations of the tumor. […]

In series [4] the test system is HT-1080-FAP cells. Briefly: cell uptake in HT-1080-FAP cells. In kind it is cell-based, human. As for the experimental part: The human fibrosarcoma cell lines HT-1080 and HT-1080-FAP transferred with human FAP gene were both cultured in Dulbecco modified Eagle medium supplemented with 10% fetal bovine serum (Gibco, USA) at 37℃/5% carbon dioxide. For cell uptake experiments, HT-1080-FAP cells (~ 1 × 10^5/well) or HT-1080 (~ 1 × 10^5/well) were seeded in 24-well plates for 24–48 h and incubated at 37℃ with radiolabeled compounds (74 kBq/well) in 0.5 mL of serum-free medium for indicated times. Non-specific binding was determined by co-incubating with 100 μM FAP inhibitor UAMC1110. For competitive FAP binding assays, HT-1080-FAP cells were incubated with [^177Lu]Lu-FAPI-04 (74 kBq/well) in the presence of different concentrations (10^−3–10^4 nM) of competing non-radioactive ligands. For internalization experiments, the radiotracer-incubated cells were washed twice with PBS (pH 7.4), followed by glycine–HCl (0,05 M, pH = 2.8) solution to distinguish between cell surface–bound (acid-releasable) and internalized (acid-resistant) radioligand. For efflux experiments, cells were preincubated with [^177Lu]21 or [^177Lu]Lu-FAPI-04 for 1 h and subsequently incubated at 37 °C in a medium free of radiotracer and serum for different time periods. The medium was removed and the cells were washed twice with cold PBS (pH 7.4) and subsequently lysed with 0.5 mL of NaOH (1 M). Cell lysates were collected and the radioactivity was determined using a γ-counter.

Regarding `CC(C)(C)[Si](F)(c1ccc(C(=O)NCC(NC(=O)CCC(C(=O)O)N2CCN(CC(=O)[O-])CCN(CC(=O)[O-])CCN(CC(=O)[O-])CC2)C(=O)NCC2CCC(C(=O)NCCCOc3ccc4nccc(C(=O)NCC(=O)N5CC(F)(F)CC5C#N)c4c3)CC2)cc1)C(C)(C)C.[177Lu+3]` (stereo not shown) [[^177Lu]21], the internalization rate in the series on HT-1080-FAP cells [1] is > 80%. Also, in series [2] (8 days, 37 °C), the “RCP after incubating in saline and serum” value is > 90%. The in vitro stability in series [2] (as summarised in discussion) is > 90%. Also, the “cell uptake in FAP negative cells” value with HT-1080 cells is on record as “Almost no uptakes”. Also, the “metabolization in blood samples (radio-HPLC)” value in series [3] (ICR mice, within 9 h pi) is on record as “little evidence of any metabolization”. Further, the in vivo stability in series [3] (as summarised in discussion) is recorded as > 90%. For the same compound, in the series on HT-1080-FAP xenograft, the “time pi up to which high accumulation was observed (SPECT)” value is “up to 144 h” and the “time up to which tumor uptake could be visualized (SPECT)” value is reported as “up to 6 days”. Besides, the “suppression of tumor growth versus control” value in the series with HT-1080-FAP xenografts (9.25 MBq i.v.) is given as “no statistically significant difference in comparison to control”. Also, in the series with HT-1080-FAP xenografts (24.05 MBq i.v., end of study), the “average relative tumor volume” value came out at 4.55. Moreover, the cell uptake with HT-1080-FAP cells [4] (1 h incubation) was 72.53% ± 3.43. Further, the cell uptake in the series with HT-1080-FAP cells [4] (24 h incubation) is recorded as 45.06% ± 2.62. Besides, the “cell uptake with competitor” value in the series on HT-1080-FAP cells [4] (co-incubation with 100 μM FAP inhibitor UAMC1110) was “could be blocked by FAP inhibitor”.

The values above are taken from article PMC10250256, “A radiohybrid theranostics ligand labeled with fluorine-18 and lutetium-177 for fibroblast activation protein-targeted imaging and radionuclide therapy” (European Journal of Nuclear Medicine and Molecular Imaging, 2023).
